Measured values: patent publication US8362070B2, “Application of puerarin in the preparation of P2X3 mediated drugs for pain/nervous system diseases” (Nanchang University, priority 2009, dated 2013)

Legend:
Type in all cases: in vivo, rat
P2X3 receptor mRNA = assay: In situ hybridization of P2X3 receptor mRNA in dorsal root ganglion of CCI rats; conditions: L4/L5 DRG
P2X3 mRNA = assay: RT-PCR of P2X3 mRNA expression in dorsal root ganglion of burn rats; conditions: n=3
Description: SD rats (their body weights were between 200±20 g) were randomly divided into the group I (sham back burn), the group II (Puerarin, intraperitoneal injection), the group III (superficial second degree back burn), the group IV (superficial second degree back burn+puerarin), the group V (control) and the group VI (superficial second degree back burn+Indocin). The rats in the group IV (superficial second degree back burn+puerarin) were subjected to intraperitoneal injection of puerarin (100 mg/kg) 30 minutes before burn and after burn everyday for continuous three days. The rats in the group VI (superficial second degree back burn+Indocin) were subjected to intraperitoneal injection of idomethine (4 mg/kg/d) 30 minutes before burn and after burn everyday for continuous three days. Primer design: β-actin was selected as the internal reference and the sequences for the primers were as below: Gel image system was used to record the scanned values for spot density (average optical density) of target electrophoresis bands, and the ratio between P2X3 band and corresponding β-actin band was used as the relative amount of P2X3 mRNA expression.

P2X3 receptor [1] = assay: Immunohistochemistry of P2X3 receptor expression in dorsal root ganglion of CCI rats; conditions: L4/L5 DRG
P2X3 receptor [2] = assay: Immunohistochemical analysis of P2X3 expression in dorsal root ganglion of burn rats; conditions: n=10
Description: SD rats (their body weights were 200±20 g) were randomly divided into the group I (sham back burn), the group II (Puerarin, intraperitoneal injection), the group III (superficial second degree back burn), the group IV (superficial second degree back burn+puerarin), the group V (control) and the group VI (superficial second degree back burn+Indocin). The rats in the group IV (superficial second degree back burn+puerarin) were subjected to intraperitoneal injection of puerarin (100 mg/kg) everyday for continuous three days 30 minutes before burn and after burn. Immunohistochemical analysis was used to detect the change in P2X3 expression in dorsal root ganglion in burn position of rats. Results of immunohistochemical analysis were subjected to analysis by using Hmias-2000 high-resolution color medical image analysis system.

[3] = tested on: rats that suffer from superficial second degree foot burn; assay: Mechanical hyperalgesia (mechanical withdrawal threshold) in rats with foot burn; conditions: for mechanical withdrawal threshold (MWT) in comparison to group III (burn) / mechanical withdrawal threshold (MWT) after 72 hours or 96 hours: superficial second degree foot burn + drug; for mechanical withdrawal threshold (MWT) in comparison to group III (burn): p<0.01; for mechanical withdrawal threshold (MWT) after 72 hours or 96 hours: vs groups I, II, V p>0.05
Source text: Male SD rats, 220-250 g, 60 rats were included, which were provided by the Department of Experimental Animals from the Medical College of Nanchang University, and the animals were divided into different groups at random. Group I was the group of sham burn in skin of feet; group II was the group of puerarin injection+first degree or superficial second degree burn in skin of feet; group III was the group of physiological saline+first degree or superficial second degree burn in skin of feet; group IV was the group of sham burn in skin of back; group V was the group of puerarin injection+first degree or superficial second degree burn in skin of back; group VI was the group of physiological saline+first degree or superficial second degree burn in skin of back. Puerarin injection was dissolved in physiological saline and the concentration was 50 mg/mL. vena caudalis injection of 4 mL/kg physiological saline was carried out for the rats in group III and […] 0.5 h before burn, and the injection was carried out once a day until the termination of the test; […], and the injection was carried out once a day until the termination of the test; skin of feet or back of the rats from group I and group IV (the sham burn group) were immersed in warm water of 37° C. for 8 seconds. After the rats were anesthetized by ether, their right posterior feet were immersed in hot water of 70° C. for 5 seconds or 8 seconds, then they were raised in separate cages after burn. The mechanical withdrawal threshold and the thermal withdrawal threshold in their right posterior feet were measured respectively before burn (Oh) and 1, 24, 48, 72, 96, 120, 144 hours after burn (the room temperature was maintained at 22±0.5° C.). BME-403 Von Frey fine thread was used to detect the mechanical withdrawal threshold (MWT). The rats were kept in transparent organic glass box (22×12×22 cm^3), and the bottom of the organic glass box was made of wire netting of 1×1 cm^2. The rats were raised in the laboratory after operations and they were kept in the organic glass box for accommodation for 15 min before the detection. The bending forces were 0.13, 0.20, 0.33, 0.60, 1.30, 3.60, 5.00, 7.30, 9.90, 20.1 g respectively. Each test was performed for ten times from the smallest bending force until the frequency of withdrawal was higher than 5/10, namely 50% reaction threshold (that was the value for inducing five reactions in ten tests). The biggest bending force was 20.1 g and bending forces≧20.1 g were recorded as 20.1 g. The interval between two stimulations was at least more than 15 seconds until the stimulation-induced reactions (such as licking feet and throwing legs) completely disappeared. BME-403 Von Frey fine thread was used to determine the mechanical withdrawal threshold (MWT). The rats were kept in transparent organic glass box (22×12×22 cm^3), and the bottom of the organic glass box was made of wire netting of 1×1 cm^2. The rats were raised in the laboratory after operations and they were kept in the organic glass box for accommodation for 15 minutes before the detection. The bending forces were 0.13, 0.20, 0.33, 0.60, 1.30, 3.60, 5.00, 7.30, 9.90, 20.1 g respectively, and bending forces≧20.1 g were recorded as 20.1 g. […]

[4] = CCI rats + drug, 14 days after operation, CCI 1.33±0.02, control 0.82±0.02
[5] = superficial second degree back burn + drug (puerarin 100 mg/kg i.p., idomethine 4 mg/kg/d i.p., three days), burn 1.04±0.03, control 0.91±0.03
[6] = CCI rats + drug, 14 days after operation, CCI 1.64±0.05, control 1.15±0.03
[7] = superficial second degree back burn + drug (puerarin 100 mg/kg i.p. three days), burn 1.21±0.04, control 1.03±0.02
[8] = puerarin alone, no CCI, 14 days

Row | Compound | average optical density of P2X3 positive neurons (P2X3 receptor mRNA, in situ hybridization) (P2X3 receptor mRNA; [4]) | relative expression amount of P2X3 mRNA (after normalization with corresponding β-actin), RT-PCR (P2X3 mRNA; [5]) | average optical density of P2X3 positive neurons (P2X3 receptor, immunohistochemistry) (P2X3 receptor [1]; [6]) | average optical density (P2X3 expression, immunohistochemistry, DRG) (P2X3 receptor [2]; [7]) | mechanical withdrawal threshold (MWT) in comparison to group III (burn) [3] | mechanical withdrawal threshold (MWT) after 72 hours or 96 hours [3] | average optical density of P2X3 positive neurons (P2X3 receptor mRNA, in situ hybridization) (P2X3 receptor mRNA; [8]) | relative expression amount of P2X3 mRNA (after normalization with corresponding β-actin), RT-PCR (P2X3 mRNA; puerarin alone i.p., no burn) | average optical density of P2X3 positive neurons (P2X3 receptor, immunohistochemistry) (P2X3 receptor [1]; [8]) | average optical density (P2X3 expression, immunohistochemistry, DRG) (P2X3 receptor [2]; puerarin alone i.p., no burn) | mechanical withdrawal threshold, comparison among sham, puerarin alone and control ([3]; puerarin alone i.p., no burn, p>0.05)
1 | COc1ccc2c(c1)c(CC(=O)O)c(C)n2C(=O)c1ccc(Cl)cc1 [Indocin, Indometacin] | 1.14±0.01 | 0.97±0.02 | 1.34±0.04 | 1.16±0.03 | significantly decreased | almost recovered to normal level |  |  |  |  | 
2 | O=c1c(-c2ccc(O)cc2)coc2c([C@@H]3O[C@H](CO)[C@@H](O)[C@H](O)[C@H]3O)c(O)ccc12 [puerarin] | 0.98±0.05 | 0.90±0.02 | 1.28±0.04 | 1.10±0.02 | significantly decreased | almost recovered to normal level | 0.82±0.03 | 0.89±0.02 | 1.07±0.03 | 1.01±0.02 | no significant difference
